From patent US9555058B2, “Antigen presenting cancer vaccine” (CALIFORNIA STEM CELL, INC., priority 2011, dated 2017)

Assays:
Format in all cases: cell-based, human
melanoma cell lines [1] = test: Apoptosis by flow cytometry using 7-AAD and annexin-V; conditions: 1000 IU/mL IFN-gamma 72 hours with pan caspase inhibitor
Procedure: The methodology of the study was as follows. Autologous and model melanoma tumor cell lines were incubated with 1000 IU/mL of IFN-gamma for 72 hours prior to assaying for autophagy, apoptosis and MHC class II expression. Autophagy was detected by immunobloting with antibodies against LC3 II and by flow cytometry with Enzo's CytoID® Autophagy Detection Kit. Apoptosis and MHC class II induction were assayed by flow cytometry using 7-AAD and annexin-V staining and antibodies against MHC class II, respectively.
Analysis of tumor cell death and changes in major histocompatibility class II expression in response to IFN-gamma were conducted by use of antibodies directed against MHC class II, annexin-V and 7-amino-actinomycin D (7-AAD) and acquired on a Beckton-Dickenson FACS Calibur® flow cytometer.
What was investigated was the induction of autophagy, apoptosis and MHC class II molecules after IFN-gamma treatment of melanoma tumor cells in vitro. Autologous and model melanoma tumor cell lines were incubated with 1000 IU/mL of IFN-gamma for 72 hours prior to assaying for autophagy, apoptosis and […] class II expression. Autophagy was detected by immunobloting with antibodies against LC3 II and by flow cytometry with Enzo's CytoID Autophagy Detection Kit. […]

[2] = tested on: autologous melanoma tumor cells; test: Trypan-blue dye exclusion viability after IFN-gamma; conditions: IFN-gamma 72 hours in complete medium; N=47; p=0.014 vs 89.1±6.8% not treated
Procedure: Pure tumor cells were generated according to Cornforth, et al. (Cornforth, et al. (2011) Cancer Immunol. Immunother. 60:123-131; Dillman, et al. (1993) J. Immunother. Emphasis Tumor Immunol. 14:65-69; Dillman, et al. (2000) Cancer Biother. Radiopharm. 15:161-168). The tumor cells were then incubated with 1,000 U/mL of interferon-gamma (InterMune, Brisbane, Calif.) for 72 h, irradiated with 100Gy from a cesium source and cryopreserved (Selvan, et al. (2007) Int. J. Cancer 122:1374-1383; Selvan, et al. (2010) Melanoma Res. 20:280-292). The IFN-gamma treated and irradiated tumor cells were recovered from cryopreservation, washed with phosphate buffered saline (PBS), and then added to the cultivated dendritic cells (DCs) and then incubated for about 24 h. The antigen-loaded DCs were harvested by gentle scraping with a rubber policeman and cryopreserved. Aliquots of IFN-gamma treated or untreated tumor cells and loaded DCs were obtained for flow cytometry evaluation and trypan-blue exclusion assay. […]

MHC class II = test: Flow cytometry of MHC class II induction by IFN-gamma in autologous tumor cells; conditions: 1000 IU/mL IFN-gamma 72 hours
Procedure: (§1) FIGS. 2A-D show characterization of IFN-gamma treated autologous tumor cells used for loading dendritic cells. Autologous melanoma tumor cells were treated with or without 1000 IU/mL IFN-gamma for 72 hours in 15% FBS/ECS in RPMI, harvested and irradiated with 100Gy and cryopreserved. Cells were then thawed in AIMV and a sample taken for flow cytometry and for preparation of cell lysates for immunoblotting prior to antigen loading of DCs. An example of four separate autologous melanoma cell lines is shown (FIG. 2A, FIG. 2B and FIG. 2C). Induction major histocompatibility complexes by IFN-gamma treatment of autologous tumor cells (FIG. 2D). Tumor cells were harvested after being treated with or without 1000 IU/mL IFN-gamma for 72 hours and then assayed for MHC class I and class II. Control isotype antibodies were used to identify positive populations. Dark data points indicate median mean fluorescent plus/minus 95% confidence interval. N=65. After irradiation, melanoma cells are checked by assays to ensure that there is not any mitosis.
Phenotypic characterization of the dendritic cell populations were performed using monoclonal antibodies against surface markers obtained from BD Pharmingen San Diego, Calif.: anti-MHC class II conjugated to PerCp, anti CD11c conjugated to APC, anti-CD80, anti-CD83, anti-CD86 conjugated to PE. Isotype controls were used to determine percent positive cells. […]

[3] = tested on: autologous melanoma cell lines; test: Immunoblotting of lysates of melanoma cells incubated with or without IFN-gamma; conditions: 1000 IU/mL IFN-gamma 72 hours; four autologous melanoma cell lines
Procedure: as §1
Cytoplasmic cell lysates were prepared with Mammalian Protein Extraction Reagent (Thermo Scientific, Rockford, Ill.) plus protease inhibitor cocktail (Roche, Indianapolis, Ind.) at 10,000 cells/uL on ice. Approximately 25 uLs/lane of cell lysates were separated on 12.5% tris-glycine gels, transferred to PVDF membrane and probed with antibodies against the following: calreticulin (MBL, Woburn, Mass.), Hsp-60, Hsp-70, Hsp-90 (R&D Systems, Minneapolis, Minn.), HMBG-1 (Cell Signaling, Danvers, Mass.), ICAM-1 (Santa Cruz Biotech, Santa Cruz, Calif.), Mel-4, Mart-1 (Signet, Emeryville, Calif.), tyrosinase (Upstate, Lake Placid, N.Y.) and GADPH (Calbiochem, Darmstadt, Germany).
Lysates from cells that were incubated in the presence or absence of IFN-gamma were subjected to immunoblotting for a variety of molecules that may be important mediators of immunity (FIG. 1B). […]

melanoma cell lines [4] = test: Immunohistochemistry of a panel of melanoma associated antigens with or without IFN-gamma; conditions: 1000 IU/mL IFN-gamma 72 hours, N=27 samples
Procedure: Expression of a panel antigens by melanoma lines were determined using immunocytochemical procedure. Cells were cultured in 8-chamber culture slides (Thermo Fisher, Rochester, N.Y.) in the presence or absence of 1000 IU/mL IFN-gamma. After 72 hours, the cells were washed 3 times with 1× Phosphate Buffered Saline (PBS) and fixed in cold acetone. After blocking endogenous peroxidase, cells were incubated with appropriate primary antibodies against the antigens listed. Immunohistochemistry was performed using biotinylated anitmouse or rabbit immunoglobulins, Super Sensitive enzyme-conjugated streptavidin labeling and horse radish peroxidase chromogen, and substrate kits (Biogenex, San Ramon, Calif.). The reactivity of the following anti-human polyclonal or monoclonal antibodies was investigated with isotype matched control antibody: S-100 and HMB-45 (Biogenex, San Ramon, Calif.), Mel-2, Mel-5, Mart-1 (Signet, Dedham, Mass.), Tyrosinase and Mage-1 (Thermo Scientific, Fremont, Calif.), Melan-A, HLA-class I and HLA-class II (Dako, Denmark).
Lysates from cells that were incubated in the presence or absence of IFN-gamma were subjected to immunoblotting for a variety of molecules that may be important mediators of immunity (FIG. 1B). In the setting of melanoma cells treated with IFN-gamma, heat shock proteins appear to be differentially regulated but remain largely present in the cell preparations, especially in the case of hsp-70.

SK-5-Mel cells = test: Autophagy by flow cytometry (Enzo CytoID Autophagy Detection), IFN-gamma with or without z-VAD; conditions: 1000 IU/mL IFN-gamma 72 hours; 20 uM z-VAD where present; vs 5% FBS/RPMI
Procedure: FIGS. 6A and 6B reveal apoptosis and autophagy induced in response to interferon-gamma. SK-5-Mel cells were incubated with 1000 IU/mL of IFN-gamma for 72 hours after which non-adherent and adherent populations were collected and assayed for apoptosis and autophagy by flow cytometry using […] and Annexin-V (FIG. 6A). Enzo Cyto-ID Autophagy Detection Dye was used to measure autophagy by flow cytometry by measuring the mean intensity peak shift of dye provided by the manufacturer (FIG. 6B). Fold changes in the peak shift in comparison to 5% FBS/RPMI are shown in FIG. 6C with serum-free as positive control for the induction of autophagy.
SK-5-Mel cells were treated with 1000 IU/mL of IFN-gamma in the presence of 20 uM of the pan-caspase inhibitor z-VAD or its control compound, z-FA for 72 hours. The cells were harvested and assayed for autophagy by flow cytometry as in FIG. 6C.
The methodology of the study was as follows. […] Autophagy was detected by immunobloting with antibodies against LC3 II and by flow cytometry with Enzo's CytoID® Autophagy Detection Kit. […]
What was investigated was the induction of autophagy, apoptosis and MHC class II molecules after IFN-gamma treatment of melanoma tumor cells in vitro. […] Autophagy was detected by immunobloting with antibodies against LC3 II and by flow cytometry with Enzo's CytoID Autophagy Detection Kit. […]

Substance | apoptosis in IFN-gamma treated cells (melanoma cell lines [1]) | viability (trypan-blue dye exclusion) [2] | cases with MHC class II induction greater than two fold (MHC class II) | ICAM-1 expression (immunoblot) [3] | calreticulin and HMGB-1 expression (immunoblot) [3] | common melanoma antigens (mel-4, Mart-1 and tyrosinase) expression (immunoblot) [3] | Change after IFN-gamma treatment: Down (melanoma cell lines [4]; antigen MAGE-1) | Change after IFN-gamma treatment: None (melanoma cell lines [4]; antigen Mel-2) | Change after IFN-gamma treatment: Down (melanoma cell lines [4]; antigen Tyrosinase) | Change after IFN-gamma treatment: None (melanoma cell lines [4]; antigen Tyrosinase) | autophagy, fold change of peak shift (SK-5-Mel cells)
carbobenzoxy-valyl-alanyl-aspartyl-[O-methyl]-fluoromethylketone [Z-VAD] | prevents apoptosis | – | – | – | – | – | – | – | – | – | –
interferon-gamma [IFN-gamma, interferon-gamma (InterMune, Brisbane, Calif.), type II interferon, used at 1000 IU/mL for 72 hours on melanoma cells] | – | 84.9±9.3% | 70% | significantly up-regulated | up-regulated in some cases | down regulated | 61.5% | 46.2% | 60.0% | 40.0% | 2.75±0.15 fold change
